The assay concerns the target T1, TXA2 receptors (Homo sapiens, UniProt P21731).
T1 construct: from tissue; host or cells: human platelets
T1 sequence (P21731 1-343): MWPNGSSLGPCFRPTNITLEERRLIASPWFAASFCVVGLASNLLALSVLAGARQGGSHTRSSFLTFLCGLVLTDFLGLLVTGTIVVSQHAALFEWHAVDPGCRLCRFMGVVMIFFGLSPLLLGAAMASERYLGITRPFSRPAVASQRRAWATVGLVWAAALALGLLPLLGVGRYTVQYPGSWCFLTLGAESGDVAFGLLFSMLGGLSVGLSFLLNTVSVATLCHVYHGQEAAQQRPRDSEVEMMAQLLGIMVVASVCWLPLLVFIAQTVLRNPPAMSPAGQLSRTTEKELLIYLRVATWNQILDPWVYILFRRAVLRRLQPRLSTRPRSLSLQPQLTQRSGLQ
Put plainly: human platelet binding assay ([^125 I]PTA-OH receptor ligand). Particulars: 50% inhibition of specific [^125 I]PTA-OH binding; human platelets. Here is the method: As indicated above, compounds of the formula (I) have biological activity that is indicative of an ability to antagonise TXA2 receptors. […] The platelet binding assay used was essentially the method described by Mais et al, J. Pharm. Exp. Ther., 1985, 235(3), 729-734 where [^125 I]PTA-OH was used as the receptor ligand. The IC50 values represent the concentration which produces a 50% inhibition of specific [^125 I]PTA-OH binding. The compounds of Examples 1 to 6 were tested in the human platelet binding assays as described above and the results obtained are shown in the Table below: […]

What is called IC50 is the concentration that inhibits the measured activity by half.

Structures can show the parent of a compound that is named as a salt.

For the compound `O=C(O)c1ccccc1CN1CCc2ccc(S(=O)(=O)Nc3cccc(Cl)c3)cc2C1` [Example 1, 2-[[7-(3-chlorophenylsulphamoyl)-1,2,3,4-tetrahydroisoquinolin-2-yl]methyl]benzoic acid], the IC50 turned out to be 2600 nM.
The figure for `O=C(O)c1cccc(CN2CCc3ccc(S(=O)(=O)Nc4cccc(Cl)c4)cc3C2)c1` [Example 2, 3-[[7-(3-Chlorophenylsulphamoyl)-1,2,3,4-tetrahydroisoquinolin-2-yl]methyl]benzoic acid] is 500 nM; for `O=C(O)c1ccc(CN2CCc3ccc(S(=O)(=O)Nc4cccc(Cl)c4)cc3C2)cc1` [Example 3, 4-[[7-(3-Chlorophenylsulphamoyl)-1,2,3,4-tetrahydroisoquinolin-2-yl]methyl]benzoic acid] it is 4000 nM; for `COC(=O)c1ccc(CN2CCc3ccc(S(=O)(=O)Nc4cccc(Cl)c4)cc3C2)o1` [Example 4, methyl-5-[[7-(3-chlorophenylsulphamoyl)-1,2,3,4-tetrahydroisoquinolin-2-yl]methyl]-2-furoate] it is 5000 nM.
The figure for `O=C(O)c1ccc(CN2CCc3ccc(S(=O)(=O)Nc4cccc(Cl)c4)cc3C2)o1` [Example 5, 5-[[7-(3-chlorophenylsulphamoyl)-1,2,3,4-tetrahydroisoquinolin-2-yl]methyl]-2-furoic acid] is 760 nM; for `O=C(O)c1ccnc(CN2CCc3ccc(S(=O)(=O)Nc4cccc(Cl)c4)cc3C2)c1` [Example 6, 2-[[7-(3-chlorophenylsulphamoyl)-1,2,3,4-tetrahydroisoquinolin-2-yl]methyl]isonicotinic acid hydrochloride] it is 2900 nM.
